From patent publication US20260262643A1, “HERBICIDAL BENZOXAZINES” (FMC CORPORATION, priority 2022, published 2026)

What was measured:
sedge, umbrella = assay: Test B flooded paddy test; format: in vivo, Cyperus difformis; details: 250 g ai/ha, Flood, 13 days, 0 to 100 scale (0 no effect, 100 complete control)
How it was run: (§1)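 Flooded to 3 cm at treatment time, 2-leaf plants got the test compound applied straight into the paddy water. They then stayed under constant flood in a greenhouse for 13 days. Ratings used a 0 to 100 visual scale.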

oat, wild [1] = assay: Test A postemergence; format: in vivo, Avena fatua; details: postemergence, 10 days; for Plant response rating, Oat, Wild: 500 g ai/ha, visual injury, 0 to 100 scale (0 no effect, 100 complete control)
How it was run: (§2)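 Greenhouse pot test, 10 days. Compound (non-phytotoxic solvent, surfactant) sprayed on soil at seeding or on seedlings at one- to two-leaf stage. Visual injury rated 0–100 against untreated plants.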

ducksalad = assay: Test B flooded paddy test; format: in vivo, Heteranthera limosa; details: 250 g ai/ha, Flood, 13 days, 0 to 100 scale (0 no effect, 100 complete control)
How it was run: as §1

wheat [2] = assay: Test A preemergence; format: in vivo, Triticum aestivum
How it was run: as §2

foxtail, giant [3] = assay: Test A postemergence; format: in vivo, Setaria faberi; details: postemergence, 10 days; for Plant response rating, Foxtail, Giant: visual injury, 0 to 100 scale (0 no effect, 100 complete control)
How it was run: as §2

wheat [4] = assay: Test A postemergence; format: in vivo, Triticum aestivum; details: postemergence, 10 days; for Plant response rating, Wheat: 500 g ai/ha, visual injury, 0 to 100 scale (0 no effect, 100 complete control)
How it was run: as §2

blackgrass [5] = assay: Test A postemergence; format: in vivo, Alopecurus myosuroides
How it was run: as §2

kochia [6] = assay: Test A postemergence; format: in vivo, Bassia scoparia; details: postemergence, 10 days; for Plant response rating, Kochia: visual injury, 0 to 100 scale (0 no effect, 100 complete control)
How it was run: as §2

goosegrass [7] = assay: Test A postemergence; format: in vivo, Eleusine indica; details: postemergence, 10 days; for Plant response rating, Goosegrass: visual injury, 0 to 100 scale (0 no effect, 100 complete control)
How it was run: as §2

soybean [8] = assay: Test A preemergence; format: in vivo, Glycine max
How it was run: as §2

rice = assay: Test B flooded paddy test; format: in vivo, Oryza sativa; details: 250 g ai/ha, Flood, 13 days, 0 to 100 scale (0 no effect, 100 complete control)
How it was run: as §1

pigweed, palmer [9] = assay: Test A preemergence; format: in vivo, Amaranthus palmeri
How it was run: as §2

foxtail, giant [10] = assay: Test A preemergence; format: in vivo, Setaria faberi
How it was run: as §2

pigweed, palmer [11] = assay: Test A postemergence; format: in vivo, Amaranthus palmeri; details: postemergence, 10 days; for Plant response rating, Pigweed, Palmer: 500 g ai/ha, visual injury, 0 to 100 scale (0 no effect, 100 complete control)
How it was run: as §2

barnyardgrass = assay: Test B flooded paddy test; format: in vivo, Echinochloa crus-galli; details: 250 g ai/ha, Flood, 13 days, 0 to 100 scale (0 no effect, 100 complete control)
How it was run: as §1

ryegrass, Italian [12] = assay: Test A preemergence; format: in vivo, Lolium multiflorum
How it was run: as §2

blackgrass [13] = assay: Test A preemergence; format: in vivo, Alopecurus myosuroides
How it was run: as §2

goosegrass [14] = assay: Test A preemergence; format: in vivo, Eleusine indica
How it was run: as §2

horseweed = assay: Test A postemergence; format: in vivo, Erigeron canadensis; details: postemergence, 10 days; for Plant response rating, Horseweed: visual injury, 0 to 100 scale (0 no effect, 100 complete control)
How it was run: as §2

ragweed [15] = assay: Test A postemergence; format: in vivo, Ambrosia artemisiifolia; details: postemergence, 10 days; for Plant response rating, Ragweed: 500 g ai/ha, visual injury, 0 to 100 scale (0 no effect, 100 complete control)
How it was run: as §2

corn [16] = assay: Test A preemergence; format: in vivo, Zea mays
How it was run: as §2

corn [17] = assay: Test A postemergence; format: in vivo, Zea mays; details: postemergence, 10 days; for Plant response rating, Corn: visual injury, 0 to 100 scale (0 no effect, 100 complete control)
How it was run: as §2

ragweed [18] = assay: Test A preemergence; format: in vivo, Ambrosia artemisiifolia
How it was run: as §2

galium = assay: Test A postemergence; format: in vivo, Galium aparine; details: postemergence, 10 days; for Plant response rating, Galium: visual injury, 0 to 100 scale (0 no effect, 100 complete control)
How it was run: as §2

ryegrass, Italian [19] = assay: Test A postemergence; format: in vivo, Lolium multiflorum; details: postemergence, 10 days; for Plant response rating, Ryegrass, Italian: 500 g ai/ha, visual injury, 0 to 100 scale (0 no effect, 100 complete control)
How it was run: as §2

oat, wild [20] = assay: Test A preemergence; format: in vivo, Avena fatua
How it was run: as §2

soybean [21] = assay: Test A postemergence; format: in vivo, Glycine max; details: postemergence, 10 days; for Plant response rating, Soybean: 500 g ai/ha, visual injury, 0 to 100 scale (0 no effect, 100 complete control)
How it was run: as §2

kochia [22] = assay: Test A preemergence; format: in vivo, Bassia scoparia
How it was run: as §2

[23] = 125 g ai/ha, visual injury after 10 days, 0 to 100 scale, 0 is no effect, 100 is complete control
[24] = 500 g ai/ha, 0 to 100 scale (0 no effect, 100 complete control), 10 days
[25] = 125 g ai/ha, 0 to 100 scale, 0 no effect, 100 complete control

## CCc1ncn(-c2cccc(C(=O)N3C[C@H](C)Oc4c(C)cccc43)c2)n1 [Compound 71]
sedge, umbrella
  Plant response rating, Sedge, Umbrella: 95
oat, wild [1]
  Plant response rating, Oat, Wild: 80
ducksalad
  Plant response rating, Ducksalad: 65
Wheat [2]; [23]
  Plant response rating, Wheat: 30
Wheat [2]; [24]
  Plant response rating, Wheat: 90
foxtail, giant [3]; 125 g ai/ha
  Plant response rating, Foxtail, Giant: 90
foxtail, giant [3]; 500 g ai/ha
  Plant response rating, Foxtail, Giant: 90
Wheat [4]
  Plant response rating, Wheat: 80
Blackgrass [5]; 125 g ai/ha, postemergence, 10 days, visual injury, 0 to 100 scale (0 no effect, 100 complete control)
  Plant response rating, Blackgrass: 80
Blackgrass [5]; 500 g ai/ha, Postemergence, 0 to 100 scale
  Plant response rating, Blackgrass: 90
Kochia [6]; 125 g ai/ha
  Plant response rating, Kochia: 60
Kochia [6]; 500 g ai/ha
  Plant response rating, Kochia: 90
Goosegrass [7]; 125 g ai/ha
  Plant response rating, Goosegrass: 10
Goosegrass [7]; 500 g ai/ha
  Plant response rating, Goosegrass: 50
Soybean [8]; [23]
  Plant response rating, Soybean: 50
Soybean [8]; [24]
  Plant response rating, Soybean: 90
rice
  Plant response rating, Rice: 0
pigweed, palmer [9]; [23]
  Plant response rating, Pigweed, Palmer: 100
pigweed, palmer [9]; [24]
  Plant response rating, Pigweed, Palmer: 100
foxtail, giant [10]; [23]
  Plant response rating, Foxtail, Giant: 100
foxtail, giant [10]; [24]
  Plant response rating, Foxtail, Giant: 100
pigweed, palmer [11]
  Plant response rating, Pigweed, Palmer: 70
barnyardgrass
  Plant response rating, Barnyardgrass: 0
ryegrass, Italian [12]; [23]
  Plant response rating, Ryegrass, Italian: 100
ryegrass, Italian [12]; [24]
  Plant response rating, Ryegrass, Italian: 100
Blackgrass [13]; [23]
  Plant response rating, Blackgrass: 80
Blackgrass [13]; [24]
  Plant response rating, Blackgrass: 90
Goosegrass [14]; [23]
  Plant response rating, Goosegrass: 100
Goosegrass [14]; [24]
  Plant response rating, Goosegrass: 100
horseweed; 125 g ai/ha
  Plant response rating, Horseweed: 30
horseweed; 500 g ai/ha
  Plant response rating, Horseweed: 80
Ragweed [15]
  Plant response rating, Ragweed: 80
Corn [16]; [23]
  Plant response rating, Corn: 40
Corn [16]; [24]
  Plant response rating, Corn: 60
Corn [17]; 125 g ai/ha
  Plant response rating, Corn: 60
Corn [17]; 500 g ai/ha
  Plant response rating, Corn: 90
Ragweed [18]; [23]
  Plant response rating, Ragweed: 0
Ragweed [18]; [24]
  Plant response rating, Ragweed: 90
galium; 125 g ai/ha
  Plant response rating, Galium: 100
galium; 500 g ai/ha
  Plant response rating, Galium: 100
ryegrass, Italian [19]
  Plant response rating, Ryegrass, Italian: 100
oat, wild [20]; [23]
  Plant response rating, Oat, Wild: 90
oat, wild [20]; [24]
  Plant response rating, Oat, Wild: 90
Soybean [21]
  Plant response rating, Soybean: 100
Kochia [22]; [23]
  Plant response rating, Kochia: 80
Kochia [22]; [24]
  Plant response rating, Kochia: 100

## CCc1ccc(-n2cnc(C(C)(C)C)n2)cc1C(=O)N1C[C@H](C)Oc2c(Cl)cccc21 [Compound 102]
sedge, umbrella
  Plant response rating, Sedge, Umbrella: 95
oat, wild [1]; [25]
  Oat, Wild plant response rating: 10
oat, wild [1]
  Plant response rating, Oat, Wild: 60
ducksalad
  Plant response rating, Ducksalad: 65
Wheat [2]; [23]
  Plant response rating, Wheat: 0
Wheat [2]; [24]
  Plant response rating, Wheat: 0
foxtail, giant [3]; [25]
  Foxtail, Giant plant response rating: 80
foxtail, giant [3]; 500 g ai/ha
  Plant response rating, Foxtail, Giant: 90
Wheat [4]; [25]
  Wheat plant response rating: 10
Wheat [4]
  Plant response rating, Wheat: 30
Blackgrass [5]; 125 g ai/ha, postemergence, 10 days, 0 to 100 scale, 0 no effect, 100 complete control
  Blackgrass plant response rating: 0
Blackgrass [5]; 500 g ai/ha, postemergence, 10 days, visual injury, 0 to 100 scale (0 no effect, 100 complete control)
  Plant response rating, Blackgrass: 60
Kochia [6]; [25]
  Kochia plant response rating: 90
Kochia [6]; 500 g ai/ha
  Plant response rating, Kochia: 90
Goosegrass [7]; [25]
  Goosegrass plant response rating: 80
Goosegrass [7]; 500 g ai/ha
  Plant response rating, Goosegrass: 80
Soybean [8]; [23]
  Plant response rating, Soybean: 50
Soybean [8]; [24]
  Plant response rating, Soybean: 100
rice
  Plant response rating, Rice: 10
pigweed, palmer [9]; [23]
  Plant response rating, Pigweed, Palmer: 100
pigweed, palmer [9]; [24]
  Plant response rating, Pigweed, Palmer: 100
foxtail, giant [10]; [23]
  Plant response rating, Foxtail, Giant: 90
foxtail, giant [10]; [24]
  Plant response rating, Foxtail, Giant: 100
pigweed, palmer [11]; [25]
  Pigweed, Palmer plant response rating: 90
pigweed, palmer [11]
  Plant response rating, Pigweed, Palmer: 100
barnyardgrass
  Plant response rating, Barnyardgrass: 10
ryegrass, Italian [12]; [23]
  Plant response rating, Ryegrass, Italian: 80
ryegrass, Italian [12]; [24]
  Plant response rating, Ryegrass, Italian: 100
Blackgrass [13]; [23]
  Plant response rating, Blackgrass: 30
Blackgrass [13]; [24]
  Plant response rating, Blackgrass: 50
Goosegrass [14]; [23]
  Plant response rating, Goosegrass: 100
Goosegrass [14]; [24]
  Plant response rating, Goosegrass: 100
horseweed; [25]
  Horseweed plant response rating: 0
horseweed; 500 g ai/ha
  Plant response rating, Horseweed: 0
Ragweed [15]; [25]
  Ragweed plant response rating: 20
Ragweed [15]
  Plant response rating, Ragweed: 40
Corn [16]; [23]
  Plant response rating, Corn: 10
Corn [16]; [24]
  Plant response rating, Corn: 20
Corn [17]; [25]
  Corn plant response rating: 20
Corn [17]; 500 g ai/ha
  Plant response rating, Corn: 80
Ragweed [18]; [23]
  Plant response rating, Ragweed: 0
Ragweed [18]; [24]
  Plant response rating, Ragweed: 0
galium; [25]
  Galium plant response rating: 50
galium; 500 g ai/ha
  Plant response rating, Galium: 100
ryegrass, Italian [19]; [25]
  Ryegrass, Italian plant response rating: 50
ryegrass, Italian [19]
  Plant response rating, Ryegrass, Italian: 50
oat, wild [20]; [23]
  Plant response rating, Oat, Wild: 40
oat, wild [20]; [24]
  Plant response rating, Oat, Wild: 80
Soybean [21]; [25]
  Soybean plant response rating: 100
Soybean [21]
  Plant response rating, Soybean: 100
Kochia [22]; [23]
  Plant response rating, Kochia: 80
Kochia [22]; [24]
  Plant response rating, Kochia: 100
